# According to patent US20210262008A1, “METHOD OF PERSONALIZED TREATMENT FOR CARDIOMYOPATHY AND HEART FAILURE AND OTHER RELATED DISEASES BY MEASURING RENIN ACTIVITY, PRO-RENIN, PRO-RENIN RECEPTOR LEVELS IN BLOOD” (priority 2018, published 2021):
# Like-named read-outs stand apart in the source and are kept apart here.
# Experiments:
# [1] = tested on: female mice with dilated cardiomyopathy (DCM); assay: Kaplan-Meier survival of female DCM mice; format: in vivo, mouse
# Excerpt: Mice: In the Examples 1-3 below, the mice used were all female littermates with or without dilated cardiomyopathy (DCM) on a C57BL/6 background. DCM is a major cause of HF, which is associated with pathological dilation of the heart ventricles and declines in heart contractile or systolic function. DCM mice express transgene dominant negative CREB transcription factor, specific to cardiomyocytes and develop a consistent progressive DCM and HF similar to humans. In female mice with DCM renal function remains within normal range up to the terminal HF stage, as measured by plasma BUN and creatinine. DCM mice (mCREBTg) are slightly hypotensive at 91 days of age compared to mCREB WT. mCREB mice were randomly assigned to experimental groups. […]
# Dose calculations were based on an average consumption of 5 mL of water/day/mouse. […] No issues with palatability or clinical dehydration were noted throughout the study as assessed by blinded husbandry and veterinary staff. […]
# Statistical Analysis: Statistical analyses were performed with GraphPad Prism 7.04 software (GraphPad Software, La Jolla, Calif., USA) using Student's t-test, one-way ANOVA, or two-way ANOVA with Tukey's multiple comparisons test (unless otherwise indicated) and Pearson's correlation. Survival was analyzed using Kaplan-Meier curves with the Mantel-Cox test. […]
# [2] = tested on: female mice with dilated cardiomyopathy (DCM); assay: Echocardiography of DCM mice at 90 days of age; format: in vivo, mouse
# mouse renin = biological target: T1, mouse renin (Mus musculus, UniProt P06281); assay: Plasma renin activity assay (FRET substrate) in plasma of treated DCM mice; format: in vivo; conditions: female DCM mice, 100 mg/kg/day orally in drinking water from 50 days of age, measured at 90 days, vs DCM control
# T1 construct: from tissue; host or cells: plasma (terminal blood, cardiocentesis) of female DCM (mCREB transgenic) mice on a C57BL/6 background
# T1 sequence (P06281 72-402): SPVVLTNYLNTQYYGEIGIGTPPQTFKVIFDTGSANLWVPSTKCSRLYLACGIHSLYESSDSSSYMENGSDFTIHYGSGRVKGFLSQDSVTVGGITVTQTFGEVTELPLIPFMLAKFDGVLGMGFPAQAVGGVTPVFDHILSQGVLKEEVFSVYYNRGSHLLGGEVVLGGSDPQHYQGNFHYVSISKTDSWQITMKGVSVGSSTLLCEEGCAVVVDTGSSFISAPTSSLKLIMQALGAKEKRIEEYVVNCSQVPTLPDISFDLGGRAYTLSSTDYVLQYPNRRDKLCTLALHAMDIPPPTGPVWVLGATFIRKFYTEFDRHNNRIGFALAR
# Method: Plasma samples were aliquoted and stored at −80° C. until analysis.
# blood pressure = conditions: 15-50 mg/kg/day via subcutaneous osmotic pumps, previous studies; cited from earlier work
# [3] = tested on: female mice with dilated cardiomyopathy (DCM); assay: Plasma Ang II, aldosterone and HF biomarkers by enzyme immunoassay in DCM mice at 90 days; format: in vivo, mouse; conditions: for plasma aldosterone levels: 100 mg/kg/day oral, 100 mg/kg/day
# Excerpt: Mice: In the Examples 1-3 below, the mice used were all female littermates with or without dilated cardiomyopathy (DCM) on a C57BL/6 background. DCM is a major cause of HF, which is associated with pathological dilation of the heart ventricles and declines in heart contractile or systolic function. DCM mice express transgene dominant negative CREB transcription factor, specific to cardiomyocytes and develop a consistent progressive DCM and HF similar to humans. In female mice with DCM renal function remains within normal range up to the terminal HF stage, as measured by plasma BUN and creatinine. DCM mice (mCREBTg) are slightly hypotensive at 91 days of age compared to mCREB WT. mCREB mice were randomly assigned to experimental groups. Groups were denoted as WT (n=20), DCM (Control, n=28), and DCM+direct renin inhibitor treatment (+DRI, n=29). At 90-day censorship, dissected organs were weighed, and terminal blood was collected via cardiocentesis with EDTA-aprotinin syringes to prevent proteolysis of targeted proteins. The blood samples were centrifuged at 3000 rpm for 20 min at 4° C. Plasma samples were aliquoted and stored at −80° C. until analysis.
# (§1) Dose calculations were based on an average consumption of 5 mL of water/day/mouse. […] The oral dose was chosen to closely mimic the human route of delivery, while not altering the blood pressure, associated with elevated plasma Ang II-aldosterone levels, given the low bioavailability of the drug in rodents. […] No issues with palatability or clinical dehydration were noted throughout the study as assessed by blinded husbandry and veterinary staff. […] The administration was started at 50 days of age to coincide with the previously identified timeline of increased renin activity and development of stage B HF in female DCM mice]. Aliskiren water was provided ad libitum throughout life. All untreated mice (WT and DCM+vehicle) received ad lib 3 ppm hyperchlorinated facility water via an automated watering system (Edstrom, Waterford, Wis., USA).
# Enzyme Immunoassay: Plasma Ang II, aldosterone, atrial natriuretic peptide (N terminus-ANP), cyclic guanosine monophosphate (cGMP), neprilysin, and corin levels were measured by enzyme immunoassays according to the manufacturers' protocols (Phoenix Pharm. Inc., Burlingame, Calif., USA; Abcam Inc., Cambridge, Mass., USA; Enzo Life Sciences Inc., Farmingdale, N.Y., USA; Boster Biological Technology, Pleasanton, Calif., USA; USCN Life Science Inc., Houston, Tex., USA).
# [4] = orally in rats; cited from earlier work
# [5] = in humans; cited from earlier work
# mice = conditions: mouse, in vivo
# Method: as §1
smiles,measurement,setting,value
"COCCCOc1cc(C[C@@H](C[C@H](N)[C@@H](O)C[C@H](C(=O)NCC(C)(C)C(N)=O)C(C)C)C(C)C)ccc1OC [aliskiren, aliskiren hemifumarate]",median survival,"[1]; 100 mg/kg/day oral, control 103 days, P<0.05",110 days
same,outlived the control mice (survival gain),[1]; median survival vs control,7%
same,heart rate,"[2]; anesthetized, control 419±10 bpm, P<0.01",469±14 bpm
same,cardiac output (CO mL/min),"[2]; vs control DCM mice, P<0.01",improved
same,"systolic function, ejection fraction (EF %)","[2]; vs control DCM mice, P<0.05",improved
same,"systolic function, fractional shortening (FS %)","[2]; vs control DCM mice, P<0.05",improved
same,plasma renin activity (PRA),mouse renin,significantly reduced elevated PRA to normal levels
same,plasma renin activity (PRA),mouse renin; listed as DRI-aliskiren,normalized pathological renin activity
same,blood pressure,blood pressure,no alteration in blood pressure
same,plasma Ang II levels,"[3]; female DCM mice, 100 mg/kg, DCM+DRI vs DCM+vehicle",no significant difference
same,plasma aldosterone levels,"[3]; female DCM mice, vs DCM control",not modulated by treatment
same,plasma aldosterone levels,"[3]; female DCM mice, vs DCM control, listed as DRI-aliskiren",no significant difference
same,ANP plasma levels,[3]; vs DCM control,not affected
same,corin plasma levels,[3]; vs DCM control,not affected
same,plasma cGMP levels,[3]; vs DCM control,non-significant trend toward lower levels
same,plasma neprilysin levels,"[3]; vs DCM control, P<0.001, listed as DRI",normalized plasma neprilysin levels
same,plasma neprilysin levels,"[3]; vs DCM control, P<0.001, listed as DRI-aliskiren",lowered neprilysin to WT levels
same,bioavailability,[4],2.6%
same,bioavailability,[5],low
same,palatability or clinical dehydration,mice,No issues
same,side effects / abnormal clinical observations,mice; 100 mg/kg/day,no side effects or abnormal clinical observations
